From US20080280860A1, “Use of Vitamin D Compounds to Treat Endometriosis” (BioXell S.p.A., priority 2005, published 2008)

Assays:
[1] = Maximum tolerated dose; assay type: in vivo, Balb/c mice; conditions: Balb/c, mouse, in vivo; mice, ip; above it the compound becomes hypercalcemic
[2] = tested on: endometriotic lesions; assay: In vivo model of endometriosis (lesion weight); design: species or system Balb/c mice; conditions: Example 2; each compound at its maximum tolerated level, ip once a day, 5 days a week for two weeks
Description: Balb/c donor mice were injected with estrogen (Estradiol AMSA; 3 ug/mouse) and one week later were sacrificed and the uterus was removed, the two horns isolated and reduced to small fragments. The fragments derived from the isolated uterine horns were resuspended in saline with ampicillin (1 mg/ml) and then injected into the peritoneum of two recipient Balb/c mice, previously anesthesized, through a 0.5 cm incision in the abdominal wall. […] Antibiotic (ampicillin 1 mg/ml) was administered on the day of the surgery and on the day after. […] […] Lesions can be identified as translucid isolated or grouped cysts mainly found on the abdominal wall, on the pancreas, and around the uterus. In some cases the lesions are necrotic. The lesions were carefully removed and put on a glass slide to dry for 48 hours, and then were weighed. In other experiments lesions are transferred to a lysis solution and mRNA isolated for gene expression analysis. For immunohistochemical analysis, lesions were frozen immediately after isolation.
Balb/c donor mice were injected with estrogen (Estradiol AMSA; 3 ug/mouse) and one week later were sacrificed and the uterus was removed, the two horns isolated and reduced to small fragments. The fragments derived from the isolated uterine horns were resuspended in saline with ampicillin (1 mg/ml) and then injected into the peritoneum of two recipient Balb/c mice, previously anesthetised, through a 0.5 cm incision in the abdominal wall. Antibiotic (ampicillin 1 mg/ml) was administered on the day of the surgery and on the day after. […] Dosage levels of the test compounds were at the maximum tolerated levels for the compound in question, i.e. 1-alpha-fluoro-25-hydroxy-16,23E-diene-26,27-bishomo-20-epi-cholecalciferol (Compound A) 100 ug/kg, calcitriol (Compound B) 0.3 ug/kg and 1,25-dihydroxy-21-(3-hydroxy-3-methylbutyl)-19-nor-cholecalciferol (Compound C) 3 ug/kg.
(§1) […] Lesions can be identified as translucid isolated or grouped cysts mainly found on the abdominal wall, on the pancreas, and around the uterus. In some cases the lesions are necrotic. The lesions were carefully removed and put on a glass slide to dry for 48 hours, and then were weighed.
Balb/c donor mice were injected with estrogen (Estradiol AMSA; 3 ug/mouse) and one week later were sacrificed and the uterus was removed, the two horns isolated and reduced to small fragments. The fragments derived from the isolated uterine horns were resuspended in saline with ampicillin (1 mg/ml) and then injected into the peritoneum of recipient Balb/c mice, previously anesthetised, through a 0.5 cm incision in the abdominal wall. Antibiotic (ampicillin 1 mg/ml) was administered on the day of the surgery and on the day after. […]
as §1, with “weighed. At least 10 test animals were used in each group.” for “weighed.”
Further experiments were performed using Compound A at 100 ug/kg but varying the time at which administration of the vitamin D compound was initiated and the time point at which administration was ceased. Specifically: (i) administration for 1 week prior to injection of the uterine fragments (ii) administration for 2 weeks subsequent to injection of the uterine fragments (iii) administration for 1 week prior and 2 weeks subsequent to injection of the uterine fragments (iv) administration for 2 weeks, initiated two days subsequent to injection of the uterine fragments (v) administration for 2 weeks, initiated two weeks subsequent to injection of the uterine fragments. In these experiments, subjects were sacrificed at the later of two weeks post injection or the end of the treatment period as appropriate.

Compound	MTD [1] [µg/kg]	lesion weight, treated versus control (vehicle only), statistical analysis [2]
C=C1/C(=C\C=C2/CCC[C@]3(C)[C@@H]([C@H](C)CCCC(C)(C)O)CC[C@@H]23)C[C@@H](O)C[C@@H]1O [Compound B, calcitriol, reference compound]	0.3	significant reduction in lesion weight
CC(C)(O)CCCC(CCCC(C)(C)O)[C@H]1CC[C@H]2/C(=C/C=C3C[C@@H](O)C[C@H](O)C3)CCC[C@]12C [Compound C, 1,25-dihydroxy-21-(3-hydroxy-3-methylbutyl)-19-nor-cholecalciferol]	3	no significant reduction in lesion weight
